US20250122174A1 (Shenzhen Yuanli Shenwan Innovative Medicine Co., Ltd., priority 2022, published 2025)

Target: HPK1 (Homo sapiens (Human), UniProt Q92918)
Test: HPK1 Inhibition Assay (ADP-Glo kinase assay)
Format: biochemical
Details: ATP 10 μM
Procedure: A stock solution of 10 mM test compound was prepared in DMSO. The compound was prepared by 5-fold and 10-point serial dilutions with HPK1 kinase assay buffer. The HPK1 kinase assay buffer contained 40 mM Tris, pH 7.5; 20 mM MgCl2, 0.1 mg/ml BSA, and 50 μM DTT. 7.5 ng/μl of Active HPK1 (Promega, V4098) and 0.1 μg/ml MBP substrate protein were added to the reaction system. The final concentration of ATP in the HPK1 kinase reaction system was 10 μM. Serial diluted compounds were transferred to the reaction system and incubated at room temperature for 1 hr. 5 μL of ADP-Glo™ Reagent (Promega, V9101) was added and incubated for 40 min to stop the kinase reaction and deplete the unconsumed ATP. […] The luminescence was measured with a plate-reading luminometer.

Chain of HPK1 (Q92918 1-346 limits assumed): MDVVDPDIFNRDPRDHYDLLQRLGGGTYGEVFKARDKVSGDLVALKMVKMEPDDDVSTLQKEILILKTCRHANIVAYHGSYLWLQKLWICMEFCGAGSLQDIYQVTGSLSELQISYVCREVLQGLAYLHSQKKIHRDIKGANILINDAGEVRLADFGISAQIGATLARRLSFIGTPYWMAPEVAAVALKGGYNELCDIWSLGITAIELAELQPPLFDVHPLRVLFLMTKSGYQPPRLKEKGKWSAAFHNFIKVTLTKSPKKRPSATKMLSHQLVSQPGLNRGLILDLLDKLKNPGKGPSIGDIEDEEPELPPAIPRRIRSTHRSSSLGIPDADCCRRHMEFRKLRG

| SMILES | IC50 |
| --- | --- |
| Cc1nc2c(N3CCN(C)CC3)c(NC(=O)c3ccc(=O)n(-c4c(F)cccc4F)n3)ccc2n1C [Example 69, 1-(2,6-difluorophenyl)-N-(1,2-dimethyl-4-(4-methylpiperazin-1-yl)-1H-benzo[d]imidazol-5-yl)-6-oxo-1,6-dihydropyridazine-3-carboxamide] | 100 to 1000 nM |
| Cc1nc2c(N3CCNC4(CC4)C3)c(NC(=O)c3ccc(=O)n(-c4c(F)cccc4F)n3)ccc2n1C [Example 81, 1-(2,6-difluorophenyl)-N-(1,2-dimethyl-4-(4,7-diazaspiro[2.5]octan-7-yl)-1H-benzo[d]imidazol-5-yl)-6-oxo-1,6-dihydropyridazine-3-carboxamide] | < 100 nM |
| Cc1nc2c(N3CC[C@H](O)C3)c(NC(=O)c3ccc(=O)n(-c4c(F)cccc4F)n3)ccc2n1C [Example 82, (S)-1-(2,6-difluorophenyl)-N-(4-(3-hydroxypyrrolidin-1-yl)-1,2-dimethyl-1H-benzo[d]imidazol-5-yl)-6-oxo-1,6-dihydropyridazine-3-carboxamide] | < 100 nM |
| Cc1nc2c(N3CCCC4(CNC4)C3)c(NC(=O)c3ccc(=O)n(-c4c(F)cccc4F)n3)ccc2n1C [Example 84, 1-(2,6-difluorophenyl)-N-(1,2-dimethyl-4-(2,6-diazaspiro[3.5]nonan-6-yl)-1H-benzo[d]imidazol-5-yl)-6-oxo-1,6-dihydropyridazine-3-carboxamide] | 100 to 1000 nM |
| Cc1nc2c(N3CCC4(CNC4)C3)c(NC(=O)c3ccc(=O)n(-c4c(F)cccc4F)n3)ccc2n1C [Example 85, 1-(2,6-difluorophenyl)-N-(1,2-dimethyl-4-(2,6-diazaspiro[3.4]octan-6-yl)-1H-benzo[d]imidazol-5-yl)-6-oxo-1,6-dihydropyridazine-3-carboxamide] | < 100 nM |
| Cc1nc2c(N(C)CC3CNC3)c(NC(=O)c3ccc(=O)n(-c4c(F)cccc4F)n3)ccc2n1C [Example 86, N-(4-((azetidin-3-ylmethyl)(methyl)amino)-1,2-dimethyl-1H-benzo[d]imidazol-5-yl)-1-(2,6-difluorophenyl)-6-oxo-1,6-dihydropyridazine-3-carboxamide] | 100 to 1000 nM |
| Cn1ncc2c(N3C[C@@H]4C[C@H]3CN4)c(NC(=O)c3ccc(=O)n(-c4c(F)cccc4F)n3)ccc21 [Example 87, N-(4-((1S,4S)-2,5-diazabicyclo[2.2.1]heptan-2-yl)-1-methyl-1H-indazol-5-yl)-1-(2,6-difluorophenyl)-6-oxo-1,6-dihydropyridazine-3-carboxamide] | 100 to 1000 nM |
| Cc1nc2c(N3CC[C@H](N)C3)c(NC(=O)c3ccc(=O)n(-c4c(F)cccc4F)n3)ccc2n1C1CCOCC1 [Example 88, (S)-N-(4-(3-aminopyrrolidin-1-yl)-2-methyl-1-(tetrahydro-2H-pyran-4-yl)-1H-benzo[d]imidazol-5-yl)-1-(2,6-difluorophenyl)-6-oxo-1,6-dihydropyridazine-3-carboxamide] | < 100 nM |
| COCCn1c(C)nc2c(N3CC[C@H](N)C3)c(NC(=O)c3ccc(=O)n(-c4c(F)cccc4F)n3)ccc21 [Example 89, (S)-N-(4-(3-aminopyrrolidin-1-yl)-1-(2-methoxyethyl)-2-methyl-1H-benzo[d]imidazol-5-yl)-1-(2,6-difluorophenyl)-6-oxo-1,6-dihydropyridazine-3-carboxamide] | < 100 nM |
| Cc1nc2c(N3CC[C@@](C)(N)C3)c(NC(=O)c3ccc(=O)n(-c4c(F)cccc4F)n3)ccc2n1C [Example 90, (R)-N-(4-(3-amino-3-methylpyrrolidin-1-yl)-1,2-dimethyl-1H-benzo[d]imidazol-5-yl)-1-(2,6-difluorophenyl)-6-oxo-1,6-dihydropyridazine-3-carboxamide] | < 100 nM |
| Cc1nc2c(N3C[C@H](N)C4(CC4)C3)c(NC(=O)c3ccc(=O)n(-c4c(F)cccc4F)n3)ccc2n1C [Example 91, (R)-N-(4-(7-amino-5-azaspiro[2.4]heptan-5-yl)-1,2-dimethyl-1H-benzo[d]imidazol-5-yl)-1-(2,6-difluorophenyl)-6-oxo-1,6-dihydropyridazine-3-carboxamide] | < 100 nM |
| Cc1nc2c(N3CC[C@@H](NC(=O)CN)C3)c(NC(=O)c3ccc(=O)n(-c4c(F)cccc4F)n3)ccc2n1C [Example 92, (R)-N-(4-(3-(2-aminoacetamido)pyrrolidin-1-yl)-1,2-dimethyl-1H-benzo[d]imidazol-5-yl)-1-(2,6-difluorophenyl)-6-oxo-1,6-dihydropyridazine-3-carboxamide] | < 100 nM |
| Cc1nc2c(N3CCC[C@H]3CN)c(NC(=O)c3ccc(=O)n(-c4c(F)cccc4F)n3)ccc2n1C [Example 93, (S)-N-(4-(2-(aminomethyl)pyrrolidin-1-yl)-1,2-dimethyl-1H-benzo[d]imidazol-5-yl)-1-(2,6-difluorophenyl)-6-oxo-1,6-dihydropyridazine-3-carboxamide] | < 100 nM |
| Cc1nc2c(N3C[C@H](N)C(F)(F)C3)c(NC(=O)c3ccc(=O)n(-c4c(F)cccc4F)n3)ccc2n1C [Example 94, (S)-N-(4-(4-amino-3,3-difluoropyrrolidin-1-yl)-1,2-dimethyl-1H-benzo[d]imidazol-5-yl)-1-(2,6-difluorophenyl)-6-oxo-1,6-dihydropyridazine-3-carboxamide] | < 100 nM |
| Cc1nc2c(N3CCC(N)C(F)(F)C3)c(NC(=O)c3ccc(=O)n(-c4c(F)cccc4F)n3)ccc2n1C (centres unmarked) [Example 95, N-(4-(4-amino-3,3-difluoropiperidin-1-yl)-1,2-dimethyl-1H-benzo[d]imidazol-5-yl)-1-(2,6-difluorophenyl)-6-oxo-1,6-dihydropyridazine-3-carboxamide] | < 100 nM |
| Cc1nc2c(N3CC(N)CC(F)(F)C3)c(NC(=O)c3ccc(=O)n(-c4c(F)cccc4F)n3)ccc2n1C (centres unmarked) [Example 96, N-(4-(5-amino-3,3-difluoropiperidin-1-yl)-1,2-dimethyl-1H-benzo[d]imidazol-5-yl)-1-(2,6-difluorophenyl)-6-oxo-1,6-dihydropyridazine-3-carboxamide] | < 100 nM |

Second part, the molecule after the results:

| IC50 | SMILES |
| --- | --- |
| < 100 nM | Cc1nc2c(N(C)[C@@H]3CCCNC3)c(NC(=O)c3ccc(=O)n(-c4c(F)cccc4F)n3)ccc2n1C [Example 70, (R)-1-(2,6-difluorophenyl)-N-(1,2-dimethyl-4-(methyl(piperidin-3-yl)amino)-1H-benzo[d]imidazol-5-yl)-6-oxo-1,6-dihydropyridazine-3-carboxamide] |
| < 100 nM | Cc1nc2c(N3CCNCC3)c(NC(=O)c3ccc(=O)n(-c4c(F)cccc4F)n3)ccc2n1C [Example 71, 1-(2,6-difluorophenyl)-N-(1,2-dimethyl-4-(piperazin-1-yl)-1H-benzo[d]imidazol-5-yl)-6-oxo-1,6-dihydropyridazine-3-carboxamide] |
| < 100 nM | Cc1nc2c(N3CC[C@H](N)C3)c(NC(=O)c3ccc(=O)n(-c4c(F)cccc4F)n3)ccc2n1C [Example 72, (S)-N-(4-(3-aminopyrrolidin-1-yl)-1,2-dimethyl-1H-benzo[d]imidazol-5-yl)-1-(2,6-difluorophenyl)-6-oxo-1,6-dihydropyridazine-3-carboxamide] |
| < 100 nM | Cc1nc2c(N3CC[C@@H](N)C3)c(NC(=O)c3ccc(=O)n(-c4c(F)cccc4F)n3)ccc2n1C [Example 73, (R)-N-(4-(3-aminopyrrolidin-1-yl)-1,2-dimethyl-1H-benzo[d]imidazol-5-yl)-1-(2,6-difluorophenyl)-6-oxo-1,6-dihydropyridazine-3-carboxamide] |
| < 100 nM | Cc1nc2c(N3CCC(N)CC3)c(NC(=O)c3ccc(=O)n(-c4c(F)cccc4F)n3)ccc2n1C [Example 74, N-(4-(4-aminopiperidin-1-yl)-1,2-dimethyl-1H-benzo[d] 98 midazole-5-yl)-1-(2,6-difluorophenyl)-6-oxo-1,6-dihydropyridazine-3-carboxamide] |
| < 100 nM | Cc1nc2c(N3CCC(C)(N)CC3)c(NC(=O)c3ccc(=O)n(-c4c(F)cccc4F)n3)ccc2n1C [Example 76, N-(4-(4-amino-4-methylpiperidin-1-yl)-1,2-dimethyl-1H-benzo[d]imidazol-5-yl)-1-(2,6-difluorophenyl)-6-oxo-1,6-dihydropyridazine-3-carboxamide] |
| < 100 nM | Cc1nc2c(N3CC[C@](C)(N)C3)c(NC(=O)c3ccc(=O)n(-c4c(F)cccc4F)n3)ccc2n1C [Example 77, (S)-N-(4-(3-amino-3-methylpyrrolidin-1-yl)-1,2-dimethyl-1H-benzo[d]imidazol-5-yl)-1-(2,6-difluorophenyl)-6-oxo-1,6-dihydropyridazine-3-carboxamide] |
| < 100 nM | Cc1nc2c(N3CCC4(CC3)CNC4)c(NC(=O)c3ccc(=O)n(-c4c(F)cccc4F)n3)ccc2n1C [Example 78, 1-(2,6-difluorophenyl)-N-(1,2-dimethyl-4-(2,7-diazaspiro[3.5]nonan-7-yl)-1H-benzo[d]imidazol-5-yl)-6-oxo-1,6-dihydropyridazine-3-carboxamide] |
| < 100 nM | Cc1nc2c(N3CC4CNCC4C3)c(NC(=O)c3ccc(=O)n(-c4c(F)cccc4F)n3)ccc2n1C (centres unmarked) [Example 79, 1-(2,6-difluorophenyl)-N-(4-(hexahydropyrrolo[3,4-c]pyrrol-2(1H)-yl)-1,2-dimethyl-1H-benzo[d]imidazol-5-yl)-6-oxo-1,6-dihydropyridazine-3-carboxamide] |
| < 100 nM | Cc1nc2c(N3C[C@H]4C[C@@H]3CN4)c(NC(=O)c3ccc(=O)n(-c4c(F)cccc4F)n3)ccc2n1C [Example 80, N-(4-((1R,4R)-2,5-diazabicyclo[2.2.1]heptan-2-yl)-1,2-dimethyl-1H-benzo[d]imidazol-5-yl)-1-(2,6-difluorophenyl)-6-oxo-1,6-dihydropyridazine-3-carboxamide] |
